Experimental data: US20160264527A1 (priority 2011, published 2016)
Counter-ions that a name gives are not always drawn. Like-named read-outs stand apart in the source and are kept apart here.

How the values were obtained:
DAGL = experiment: Inhibition of DAGL in INS 832/13 β-cell extracts (1,2-dioleoylglycerol hydrolysis, HPLC); type: biochemical; conditions: compound at 10 μM; 60 min at 30° C.; 50 μM 1,2-dioleoylglycerol
Method: (§1) Both ABHD6 and DAGL enzymes were assayed in a single incubation, with separate substrates. Cell extract, 10 μg was incubated in a final volume of 50 μl with 50 μM 1,2-dioleoylglycerol (substrate for DAGL) and 50 μM 1-palmitoylglycerol (substrate for ABHD6). […] Quantification of oleate and palm itate released gave the activities of DAGL and ABHD6, respectively. Incubations contained indicated compounds at 10 μM (or as shown) concentration. VVWL70 was used as a positive control for ABHD6 inhibition and orlistat (ORL) was used as a control for total lipase inhibition.

ABHD6 = molecular target: T1, ABHD6 (Rattus norvegicus, UniProt Q5XI64); experiment: biochemical; conditions: read-out: ABHD6 Inhibition %
T1 construct: INS 832/13 β-cell extracts (whole cell) were prepared by sonication; endogenous in cells; host or cells: INS 832/13 β-cells, whole-cell extract
T1 sequence (Q5XI64 1-337): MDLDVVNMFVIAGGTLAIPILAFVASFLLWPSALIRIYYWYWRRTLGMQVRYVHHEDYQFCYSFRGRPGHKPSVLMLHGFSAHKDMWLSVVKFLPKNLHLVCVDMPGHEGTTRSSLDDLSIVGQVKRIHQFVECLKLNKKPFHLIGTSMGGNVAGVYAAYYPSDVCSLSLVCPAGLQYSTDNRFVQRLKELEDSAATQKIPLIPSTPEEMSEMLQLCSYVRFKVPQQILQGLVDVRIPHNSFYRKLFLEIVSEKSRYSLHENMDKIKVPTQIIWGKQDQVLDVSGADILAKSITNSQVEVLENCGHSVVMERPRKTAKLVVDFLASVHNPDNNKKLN
Method: as §1

INS832/13 cells = experiment: Insulin secretion from INS832/13 cells, 2-h static incubations; type: cell-based; conditions: control 1.95
Method: Materials. Cell culture supplies were from Corning (Corning, N.Y.) and Fisherbrand (Canada). VVWL70 was dissolved in dimethylsulfoxide (DMSO) before their use in insulin secretion experiments. Palmitate sodium salt was from Nu-Check Prep (Elysian, Minn.) and bicinchoninic acid protein assay kit from Pierce (Rockford, Ill.) was used. Stock unlabelled palm itate was prepared at 4 mM in 5% defatted BSA as described elsewhere (Roduit et al. Diabetes (2004) 53 pp 1007-1019,).
Cell culture. INS832/13 cells (Hohmeir et al. Diabetes (2000) 49 pp 424-430,) were cultured at 37° C. in a humidified atmosphere containing 5% CO2 in RPMI 1640 with sodium bicarbonate, supplemented with 10% (v/v) fetal calf serum (Wisent), 10 mM HEPES, pH 7.4, 2 mM L-glutamine, 1 mM sodium pyruvate and 50 μM β-mercaptoethanol (complete RPMI). Cells were grown to 80% confluence. Media were changed to RPMI 1640 containing 3 mM glucose supplemented as the complete RPMI 24 h prior to the experiments. Insulin secretion incubations were conducted in Krebs-Ringer bicarbonate buffer containing 10 mM HEPES, pH 7.4 (KRBH).
Insulin secretion measurement. INS832/13 cells were washed in KRBH containing 1 mM glucose and 0.5% defatted BSA (KRBH 1 G/0.5% BSA) and pre-incubated for 45 min in KRBH 1 G/0.5% BSA in presence of pharmacological agents (at indicated concentrations) or vehicle (DMSO). For examining the effect of VVWL70 (an inhibitor of ABHD6), other compounds identified in table 1, and/or orlistat (lipase inhibitor), the compounds were added first in pre-incubation media and then during incubation at 1 to 20 μM concentration (see Table-2) at 2 mM and 10 mM glucose. Insulin secretion from INS832/13 cells was measured from 2-h static incubations in KRBH containing various glucose concentrations, 0.5% defatted BSA and pharmacological agents or vehicle (DMSO), with or without 35 mM KCl or 0.3 mM palm itate, as specified (see Peyot et al., 2009—Adipose Triglyceride Lipase Is Implicated in Fuel- and Non-fuel-stimulated Insulin Secretion—J Biol Chem, 284: pp. 16848-16859). The experiments were done 3 times, with triplicates of each measurement.

CD1 strain mice = experiment: Oral glucose tolerance test (OGTT) in streptozotocin-induced mildly diabetic mice; type: in vivo; conditions: 5 mg/kg intraperitoneally daily for three days prior to OGTT; glucose 2 g/kg by gavage; versus vehicle; FIGS. 1 and 2
Method: In this experiment—CD1 strain mice were injected once with streptozotocin (100 mg/kg body wt) to induce mild diabetes. After 4 weeks, the mice were fasted overnight and oral glucose tolerance test (OGTT) was done. Half the animals (5) received ABHD6 inhibitor, VVWL70 for the three days prior to OGTT, daily, intraperitoneally (at 5 mg/kg body weight) and the other half received only vehicle. For OGTT, glucose was given by gavage (2 g/kg body wt), followed by blood collection at indicated time points (on the graph) for the analysis of blood glucose (by glucometer) and plasma insulin (by ELISA).

[1] = compound at 10 μM, 60 min at 30° C., 50 μM 1-palmitoylglycerol

CNC(=O)c1ccc(-c2ccc(OC(=O)N(C)Cc3cccc(-c4ccccc4)c3)cc2)cc1 [Compound 4, 4′-(Methylcarbamoyl)biphenyl-4-yl N-methyl-N-(3-phenylbenzyl)carbamate]
DAGL Inhibition % (DAGL): 0% | inhibition at 10 µM (ABHD6): 70% | Insulin secretion (% content) (INS832/13 cells; compound at 2 μM): 3.05 % content | Insulin secretion (% content) (INS832/13 cells; compound at 5 μM): 3.65 % content | Insulin secretion (% content) (INS832/13 cells; compound at 10 μM): 3.82 % content

CN(Cc1cccc(-c2ccncc2)c1)C(=O)Oc1ccc(-c2ccc(C(N)=O)cc2)cc1 [Compound 1, reference compound]
blood glucose control in OGTT (CD1 strain mice): able to control their blood glucose levels better than the mice which were given vehicle | plasma insulin levels in OGTT (CD1 strain mice): increase in plasma insulin levels | Insulin secretion (% content) (INS832/13 cells; compound at 2 μM): 3.22 % content | Insulin secretion (% content) (INS832/13 cells; compound at 5 μM): 3.97 % content | Insulin secretion (% content) (INS832/13 cells; compound at 10 μM): 6.03 % content

CNC(=O)c1ccc(-c2ccc(OC(=O)N(C)Cc3cccc(-c4ccncc4)c3)cc2)cc1 [Compound 2, 4′-(Methylcarbamoyl)biphenyl-4-yl N-methyl-N-(3-(pyridin-4-yl)benzyl)carbamate]
DAGL Inhibition % (DAGL): 0% | inhibition at 10 µM (ABHD6): 98% | Insulin secretion (% content) (INS832/13 cells; compound at 2 μM): 2.25 % content | Insulin secretion (% content) (INS832/13 cells; compound at 5 μM): 3.70 % content | Insulin secretion (% content) (INS832/13 cells; compound at 10 μM): 6.08 % content

NC(=O)c1ccc(-c2ccc(OC(=O)N(Cc3cccc(-c4ccncc4)c3)c3ccccc3)cc2)cc1 [Compound 3, trifluoroacetate salt]
DAGL Inhibition % (DAGL): 0% | inhibition at 10 µM (ABHD6; [1]): 90% | Insulin secretion (% content) (INS832/13 cells; compound at 2 μM): 2.00 % content | Insulin secretion (% content) (INS832/13 cells; compound at 5 μM): 2.10 % content | Insulin secretion (% content) (INS832/13 cells; compound at 10 μM): 3.05 % content

CNC(=O)c1ccc(-c2ccc(OC(=O)N(Cc3cccc(-c4ccncc4)c3)C(C)C)cc2)cc1 [Compound 6, 4′-(Methylcarbamoyl)biphenyl-4-yl N-i-propyl-N-(3-(pyridin-4-yl)benzyl)carbamate]
DAGL Inhibition % (DAGL): 0% | inhibition at 10 µM (ABHD6; [1]): 95% | Insulin secretion (% content) (INS832/13 cells; compound at 2 μM): 3.10 % content | Insulin secretion (% content) (INS832/13 cells; compound at 5 μM): 3.98 % content | Insulin secretion (% content) (INS832/13 cells; compound at 10 μM): 5.88 % content

CN(Cc1cccc(-c2ccncc2)c1)C(=O)Oc1ccc(-c2ccc(C(=O)NC3CC3)cc2)cc1 [Compound 5, 4′-(Cyclopropylcarbamoyl)biphenyl-4-yl N-methyl-N-(3-(pyridin-4-yl)benzyl)carbamate]
DAGL Inhibition % (DAGL): 10% | inhibition at 10 µM (ABHD6): 60% | Insulin secretion (% content) (INS832/13 cells; compound at 2 μM): 2.01 % content | Insulin secretion (% content) (INS832/13 cells; compound at 5 μM): 2.05 % content | Insulin secretion (% content) (INS832/13 cells; compound at 10 μM): 3.56 % content
